Test results: patent publication US20170319552A1, “ATROPISOMERS OF TRIAZOLE DERIVATIVE” (ARDEA BIOSCIENCES, INC., priority 2016, published 2017)
Where two headings read alike, the source gives them in different places.

Experiments:
[1] = In vivo human metabolism, plasma and urine pharmacokinetics after single oral dose of racemic Compound (I); details: human
Experimental: Plasma samples were collected prior to dosing (within 30 minutes before dosing) and at the following timepoints: 0.5, 1, 1.5, 2, 3, 4, 5, 6, 8, 10, 12, and 24 hours postdose. Urine was also collected. […] The supernatant was diluted with injection solvent and analyzed by HPLC with tandem mass spectrometry (LC/MS/MS). […] The calibration curves were linear over the concentration range between 5.00 ng/mL and 2000 ng/mL with a lower limit of quantification (LLOQ) of 5.00 ng/mL.
Using the above data, the following plasma pharmacokinetic parameters were calculated using validated Phoenix WinNonlin, version 6.3 (Pharsight Corporation, Mountain View, Calif.) and are shown (geometric mean 95% CI) in tables 11, 12, and 13 below.
• Cmax: Maximum observed concentration (μg/mL) • Tmax: Time of occurrence of maximum observed concentration (hr) • AUC0-24: Area under plasma concentration-vs-time curve, from time 0 to 24 hours postdose (μg·hr/mL) • C24: Concentration 24 hours post dose (μg/mL) • t1/2: Apparent terminal half-life (hr)

[2] = Atropisomer interconversion, thermal challenge in organic solvent (acetonitrile); format: physicochemical
Experimental: (§1) The individual atropisomers of Compound (I), atropisomer 1 and atropisomer 2 (elution order from normal-phase chiral chromatography) were exposed to various conditions, including thermal challenge in both organic and aqueous media and exposure to simulated biological conditions, to ascertain whether they readily interconvert.
Samples of each separate atropisomers were held at 60° C. for four days and then analyzed by high performance liquid chromatography (AGMS02 Agilent 1100) on a normal phase amylose-based chiral column (ChiralPak IA-3, 3 μm, 100×4.6 mm, column 244), using isocratic elution and UV detection at 226 nm (see example 1).

recombinant human CYP2C9 = recombinant human CYP2C9 (Homo sapiens, UniProt P11712); experiment: Metabolite formation with recombinant human CYP2C9; format: in vitro ADME
Experimental: (§2) The formation of M3, M3c, M4 and M6 from each atropisomer in liver microsomal and recombinant CYP incubations was determined, based on the peak area ratio of analyte over internal standard (IS)

[3] = In vitro metabolism, human liver microsomes in the presence of mEH inhibitor valpromide; format: in vitro ADME
Experimental: (§3) Human liver microsomes (0.5 mg/mL; mixed gender, ultrapooled, BD Biosciences, catalog number 452117) were incubated at 37±1° C. in 0.2 mL (final volume) of incubation mixtures containing potassium phosphate buffer (100 mM, pH7.4), MgCl2 (3 mM), NADPH (1 mM), atropisomer (1, 10, or 50 μM) and valpromide (0, 50, or 100 μM) (all experiments performed in duplicate). Reactions were initiated by addition of NADPH solution and terminated at predetermined time point (30 min) by addition of stop reagent (300 μL chilled acetonitrile containing 0.1 μM of 7-hydroxycoumarin as an internal standard). After incubation, microsomal proteins were precipitated by centrifugation at 3300×g for 15 min at 4° C. Supernatant fractions were analyzed by LC-MS/MS.
(§4) HPLC mass spectrometer system: An API4000 triple quadrupole mass spectrometer equipped with electrospray ionization ion source was used for quantitation and operated in positive mode. The HPLC system consisted of a CTC Analytics PAL autosampler, an Agilent 1100 series degasser (G1379A), and an Agilent 1100 series binary pump (G1312A). […]
as §2

[4] = In vitro metabolism, incubations with human liver microsomes; format: in vitro ADME
Experimental: as §3, with “and the atropisomers” for “atropisomer”, “50” for “50 μM) and valpromide (0, 50, or 100”, “duplicate). Stock solutions of atropisomers were prepared with DMSO at 100 mM. The final concentration of DMSO in the incubation was at or less than 0.05%.” for “duplicate).”
as §4, §2

[5] = Atropisomer interconversion, thermal challenge in aqueous solvent (dilute sodium bicarbonate); format: physicochemical
Experimental: as §1
Atropisomer 1 was dissolved in dilute aqueous sodium bicarbonate solution. Atropisomer 2 was dissolved in dilute aqueous sodium bicarbonate solution. […] Samples of the resulting solutions were exposed to room temperature (rt), 60° C., and 100° C. for four days. After four days, the samples were concentrated to dryness (SpeedVac evaporator—DNA120, property H001630), redissolved in acetonitrile and analyzed by high performance liquid chromatography (AGMS02 Agilent 1100) on a normal phase amylose-based chiral column (ChiralPak IA-3, 3 μm, 100×4.6 mm, column 244), using isocratic elution and UV detection at 226 nm (see example 1). […] Sample chromatograms at t0, 60° C., and 100° C. after four days, are depicted in FIG. 3A, FIG. 3B and FIG. 3C respectively.

[6] = Urine PK Parameters (Geometric mean, CI 95%), single oral 400 mg racemic Compound (I)
[7] = plasma, geometric mean, single oral 400 mg racemic Compound (I)

Sequence of recombinant human CYP2C9 (P11712 whole entry): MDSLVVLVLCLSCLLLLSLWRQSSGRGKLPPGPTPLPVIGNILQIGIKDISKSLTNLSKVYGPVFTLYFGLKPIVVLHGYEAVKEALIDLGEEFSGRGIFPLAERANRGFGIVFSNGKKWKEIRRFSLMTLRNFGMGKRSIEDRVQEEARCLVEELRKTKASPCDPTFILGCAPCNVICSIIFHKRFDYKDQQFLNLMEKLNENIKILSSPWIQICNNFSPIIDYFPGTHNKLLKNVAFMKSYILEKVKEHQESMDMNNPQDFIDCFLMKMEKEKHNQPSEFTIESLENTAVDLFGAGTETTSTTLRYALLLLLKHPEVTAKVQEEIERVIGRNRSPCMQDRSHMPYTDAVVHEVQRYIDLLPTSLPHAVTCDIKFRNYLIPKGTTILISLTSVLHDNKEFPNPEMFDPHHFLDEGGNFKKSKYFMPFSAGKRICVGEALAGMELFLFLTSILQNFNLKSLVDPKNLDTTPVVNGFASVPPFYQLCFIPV

O=C(O)CSc1nnc(Br)n1-c1ccc(C2CC2)c2ccccc12 (single isomer, unassigned) [Atropisomer 1, (−)-2-(5-bromo-4-(4-cyclopropylnaphthalen-1-yl)-4H-1,2,4-triazol-3-ylthio)acetic acid]
Ae0-24 [1, 6]: 66.3 mg
CLR0-24 [1, 6]: 42.6 mL/min
concentration at 0.5 h ([1]; male, plasma, po, 400 mg, 0.5 hr postdose, single oral 400 mg Compound (I) racemic mixture, adult male subjects): 65 ng/mL
concentration at 1 h ([1]; male, plasma, po, 400 mg, 1 hr postdose, single oral 400 mg Compound (I) racemic mixture, adult male subjects): 1720 ng/mL
concentration at 1.5 h ([1]; male, plasma, po, 400 mg, 1.5 hr postdose, single oral 400 mg Compound (I) racemic mixture, adult male subjects): 3600 ng/mL
concentration at 2 h ([1]; male, plasma, po, 400 mg, 2 hr postdose, single oral 400 mg Compound (I) racemic mixture, adult male subjects): 4460 ng/mL
concentration at 3 hr ([1]; male, plasma, po, 400 mg, 3 hr postdose, single oral 400 mg Compound (I) racemic mixture, adult male subjects): 5740 ng/mL
concentration at 4 hr ([1]; male, plasma, po, 400 mg, 4 hr postdose, single oral 400 mg Compound (I) racemic mixture, adult male subjects): 4560 ng/mL
concentration at 5 hr ([1]; male, plasma, po, 400 mg, 5 hr postdose, single oral 400 mg Compound (I) racemic mixture, adult male subjects): 3430 ng/mL
concentration at 6 hr ([1]; male, plasma, po, 400 mg, 6 hr postdose, single oral 400 mg Compound (I) racemic mixture, adult male subjects): 1960 ng/mL
concentration at 8 hr ([1]; male, plasma, po, 400 mg, 8 hr postdose, single oral 400 mg Compound (I) racemic mixture, adult male subjects): 811 ng/mL
concentration at 10 hr ([1]; male, plasma, po, 400 mg, 10 hr postdose, single oral 400 mg Compound (I) racemic mixture, adult male subjects): 415 ng/mL
concentration at 12 hr ([1]; male, plasma, po, 400 mg, 12 hr postdose, single oral 400 mg Compound (I) racemic mixture, adult male subjects): 248 ng/mL
concentration at 24 h ([1]; male, plasma, po, 400 mg, 24 hr postdose, single oral 400 mg Compound (I) racemic mixture, adult male subjects): 33 ng/mL
AUC(0-t) ([1]; male, plasma, po, 400 mg, Plasma Concentration (Mean), single oral 400 mg racemic Compound (I), read-out: AUC0-24): 27100 ng·h/mL
Cmax ([1]; male, plasma, po, 400 mg, Plasma Concentration (Mean), single oral 400 mg racemic Compound (I), read-out: Cmax): 6600 ng/mL
Cmax ([1]; male, plasma, po, 400 mg, plasma, geometric mean, single oral 400 mg racemic Compound (I), read-out: Cmax: Maximum observed concentration): 6230 ng/mL
half-life ([1]; male, plasma, po, 400 mg, plasma, geometric mean, single oral 400 mg racemic Compound (I), read-out: t1/2: Apparent terminal half-life (converted)): 3.59 h
concentration at 0 h ([1]; male, plasma, po, 400 mg, time 0 hr (prior to dosing), single oral 400 mg Compound (I) racemic mixture, adult male subjects): 0 ng/mL
Tmax ([1]; male, plasma, po, 400 mg, read-out: Tmax: Time of occurrence of maximum observed concentration): 3 h
AUC0-24: Area under plasma concentration-vs-time curve, from time 0 to 24 hours postdose [1, 7]: 25.9 µg·h/mL
C24 h: Concentration 24 hours post dose [1, 7]: 21.6 ng/mL
% Atropisomer 1 ([2]; acetonitrile 0.25 mg/mL, t0): 99.7%
% Atropisomer 2 ([2]; acetonitrile 0.25 mg/mL, t0): 0.3%
% Atropisomer 1 ([2]; acetonitrile, 60° C. 4 days): 99.7%
% Atropisomer 2 ([2]; acetonitrile, 60° C. 4 days): 0.3%
Formation of M3c, CYP2C9 mediated, atropisomer 1 versus atropisomer 2 (recombinant human CYP2C9): significantly greater
M3c level in the presence of valpromide (mEH inhibitor) [3]: greatly increased
M3c formation [4]: predominantly formed
% Atropisomer 1 ([5]; 60° C. 4 days): 99.8%
% Atropisomer 2 ([5]; 60° C. 4 days): 0.2%
% Atropisomer 1 ([5]; 100° C. 4 days): 99.6%
% Atropisomer 2 ([5]; 100° C. 4 days): 0.4%
% Atropisomer 1 ([5]; rt, 4 days): 99.8%
% Atropisomer 2 ([5]; rt, 4 days): 0.2%
% Atropisomer 1 ([5]; t0 (control)): 99.8%
% Atropisomer 2 ([5]; t0 (control)): 0.2%
